Here are results for five compounds from PubChem BioAssay AID1963424 (Molecular Pharmacology Branch, DTP, NCI, 2024).

The subject of the experiment is 327498-153-R-J2-PDC complex spheroid growth, % test/control. In words: Anticancer human tumor 327498-153-R-J2-PDC patient-derived uterine carcinosarcoma cell line growth inhibition [Asc]. The settings on record: for viability, T/C: stronger effect = lower value. The method in brief: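 Complex solid-tumor spheroids incorporating human endothelial and mesenchymal stem cells received single agents or combinations over half-log dilution ranges anchored to clinical Cmax.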

Where [1] appears, read: curve of first compound, second compound 0.03 µM.
The mark [2] stands for this setting: curve of first compound, second compound 0.0949 µM.
Where [3] appears, read: curve of first compound, second compound 0.3 µM.
[4] abbreviates: curve of first compound, second compound 0.949 µM.
[5] abbreviates: curve of first compound, second compound 3 µM.
[6] abbreviates: second compound 0.03 µM, first compound 0.0316 µM.
The mark [7] stands for this setting: second compound 0.03 µM, first compound 0.1 µM.
[8] abbreviates: second compound 0.03 µM, first compound 0.316 µM.
Setting [9] is: second compound 0.03 µM, first compound 1 µM.
Where [10] appears, read: second compound 0.0949 µM, first compound 0.0316 µM.
The mark [11] stands for this setting: second compound 0.0949 µM, first compound 0.1 µM.
Setting [12] is: second compound 0.0949 µM, first compound 0.316 µM.
The mark [13] stands for this setting: second compound 0.0949 µM, first compound 1 µM.
The mark [14] stands for this setting: second compound 0.3 µM, first compound 0.0316 µM.
Where [15] appears, read: second compound 0.3 µM, first compound 0.1 µM.
The mark [16] stands for this setting: second compound 0.3 µM, first compound 0.316 µM.
[17] abbreviates: second compound 0.3 µM, first compound 1 µM.
[18] abbreviates: second compound 0.949 µM, first compound 0.0316 µM.
Setting [19] is: second compound 0.949 µM, first compound 0.1 µM.
[20] abbreviates: second compound 0.949 µM, first compound 0.316 µM.
Setting [21] is: second compound 0.949 µM, first compound 1 µM.
Where [22] appears, read: second compound 3 µM, first compound 0.0316 µM.
Where [23] appears, read: second compound 3 µM, first compound 0.1 µM.
The mark [24] stands for this setting: second compound 3 µM, first compound 0.316 µM.
Where [25] appears, read: second compound 3 µM, first compound 1 µM.

SMILES strings stand for the structures. Several values for one entry are separate records, joined by “and”; a condition that tells them apart may be missing. Identical values can stand only once.
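Also: spheroids exposed to compound for 7 days after 3 days of growth.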
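For viability, T/C in this document: 100% = DMSO vehicle control wells.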

By IC50 is commonly meant the midpoint of a concentration-inhibition curve. What is called viability, T/C is the result in the treated group divided by that in the control group, in per cent. Take `C#Cc1c(F)ccc2cc(O)cc(-c3ncc4c(N5CC6CCC(C5)N6)nc(OCC56CCCN5CC(F)C6)nc4c3F)c12` (centres undefined) + CCN1C(C(=O)NC23CCC(C(=O)O)(CC2)CC3)C(c2cccc(Cl)c2F)C2(C(=O)Nc3cc(Cl)ccc32)C12CCCCC2: the IC50 is, setting by setting: under setting [1], 2930 nM; under setting [2], 709 nM; under setting [3], less than 31.6 nM; under setting [4], less than 31.6 nM; under setting [5], less than 31.6 nM. Also, the viability, T/C was 87.3% under setting [6]; 94.4% under setting [7]; 83.2% under setting [8]; 61.2% under setting [9]; 54% (second compound 0.03 µM, first compound 3.16 µM); 39.4% (second compound 0.03 µM, first compound 10 µM). The viability, T/C by setting is: under setting [10], 77.4%; under setting [11], 74.7%; under setting [12], 61.6%; under setting [13], 43%; (second compound 0.0949 µM, first compound 3.16 µM) 37%; (second compound 0.0949 µM, first compound 10 µM) 26.8%. The viability, T/C runs as follows: under setting [14], 33.5%; under setting [15], 36.1%; under setting [16], 24.3%; under setting [17], 15.7%; (second compound 0.3 µM, first compound 3.16 µM) 14.4%; (second compound 0.3 µM, first compound 10 µM) 7.22%. In addition, the viability, T/C was 10.2% under setting [18]; 9.47% under setting [19]; 4.8% under setting [20]; 4.74% under setting [21]; 4.43% (second compound 0.949 µM, first compound 3.16 µM); 1.84% (second compound 0.949 µM, first compound 10 µM). For the same compound, the viability, T/C by setting is: under setting [22], 2.16%; under setting [23], 1.97%; under setting [24], 2.08%; under setting [25], 1.55%; (second compound 3 µM, first compound 3.16 µM) 1.14%; (second compound 3 µM, first compound 10 µM) 0.73%.
Consider `Cn1ncnc1[C@H]1c2n[nH]c(=O)c3cc(F)cc(c23)N[C@@H]1c1ccc(F)cc1` + CNC(C)C(=O)NC1CN(S(=O)(=O)c2cccc(S(=O)(=O)N3CCC4CCC(C(=O)NC(c5ccccc5)c5ccccc5)N4C(=O)C(NC(=O)C(C)NC)C3)c2)CCC2CCC(C(=O)NC(c3ccccc3)c3ccccc3)N2C1=O, for which the IC50 was determined as 16.2 nM (curve of first compound, second compound 0.01 µM); 17 nM (curve of first compound, second compound 0.0316 µM); 17.7 nM (curve of first compound, second compound 0.1 µM); 14.7 nM (curve of first compound, second compound 0.316 µM); 16.6 nM (curve of first compound, second compound 1 µM). For the same compound, the viability, T/C was 98.5% (second compound 0.01 µM, first compound 0.000316 µM); 109% (second compound 0.01 µM, first compound 0.001 µM); 101% (second compound 0.01 µM, first compound 0.00316 µM); 68% (second compound 0.01 µM, first compound 0.01 µM); 24.8% (second compound 0.01 µM, first compound 0.0316 µM); 8.36% (second compound 0.01 µM, first compound 0.1 µM). The viability, T/C reads like this: (second compound 0.0316 µM, first compound 0.000316 µM) 98.9%; (second compound 0.0316 µM, first compound 0.001 µM) 111%; (second compound 0.0316 µM, first compound 0.00316 µM) 98.2%; (second compound 0.0316 µM, first compound 0.01 µM) 73.8%; (second compound 0.0316 µM, first compound 0.0316 µM) 22.6%; (second compound 0.0316 µM, first compound 0.1 µM) 8.68%. Moreover, the viability, T/C (second compound 0.1 µM, first compound 0.000316 µM) is 98.2%; the viability, T/C (second compound 0.1 µM, first compound 0.001 µM) is 106%; the viability, T/C (second compound 0.1 µM, first compound 0.00316 µM) was 91.2%; the viability, T/C (second compound 0.1 µM, first compound 0.01 µM) is 73.3%; the viability, T/C (second compound 0.1 µM, first compound 0.0316 µM) is 27.1%; the viability, T/C (second compound 0.1 µM, first compound 0.1 µM) is 7.43%. Further, the viability, T/C runs as follows: (second compound 0.316 µM, first compound 0.000316 µM) 100%; (second compound 0.316 µM, first compound 0.001 µM) 112%; (second compound 0.316 µM, first compound 0.00316 µM) 111%; (second compound 0.316 µM, first compound 0.01 µM) 64.7%; (second compound 0.316 µM, first compound 0.0316 µM) 21.5%; (second compound 0.316 µM, first compound 0.1 µM) 8%. The viability, T/C is 99.3% (second compound 1 µM, first compound 0.000316 µM); 105% (second compound 1 µM, first compound 0.001 µM); 107% (second compound 1 µM, first compound 0.00316 µM); 68.9% (second compound 1 µM, first compound 0.01 µM); 25.3% (second compound 1 µM, first compound 0.0316 µM); 8.08% (second compound 1 µM, first compound 0.1 µM).
With `O=C(c1cc(Cc2n[nH]c(=O)c3ccccc23)ccc1F)N1CCN(C(=O)C2CC2)CC1`, the viability, T/C by setting is: (compound 0.0316 µM) 86.5% and 104% and 109%; (compound 0.1 µM) 89.6% and 99.6% and 105%; (compound 0.316 µM) 92.9% and 93.8% and 98%; (compound 1 µM) 78.8% and 89.2% and 93.4%; (compound 3.16 µM) 58.8% and 71.2% and 71.8%; (compound 10 µM) 18.3% and 19.8% and 20.8%. Also, the IC50 (curve of compound) was 4010 nM and 5010 nM and 5130 nM.
For `C=C(F)C(=O)N1CCN(c2nc(OCC3CCCN3C)nc3c2CCN(c2cccc4cccc(Cl)c24)C3)CC1CC#N` (centres undefined), the viability, T/C reads like this: (compound 0.0316 µM) 68.8% and 82.4% and 85%; (compound 0.1 µM) 61.8% and 69.6% and 74.7%; (compound 0.316 µM) 56.1% and 67.6% and 66%; (compound 1 µM) 48.2% and 59.2% and 62.2%; (compound 3.16 µM) 19.4% and 14.3% and 24.8%; (compound 10 µM) 0.22% and 0.23% and 0.25%. Further, under “curve of compound”, the IC50 is 654 nM and 1240 nM and 1270 nM.
For `CNC(C)C(=O)NC1CN(S(=O)(=O)c2cccc(S(=O)(=O)N3CCC4CCC(C(=O)NC(c5ccccc5)c5ccccc5)N4C(=O)C(NC(=O)C(C)NC)C3)c2)CCC2CCC(C(=O)NC(c3ccccc3)c3ccccc3)N2C1=O` (centres undefined) + CCN1C(C(=O)NC23CCC(C(=O)O)(CC2)CC3)C(c2cccc(Cl)c2F)C2(C(=O)Nc3cc(Cl)ccc32)C12CCCCC2, the IC50 reads like this: under setting [1], greater than 1000 nM; under setting [2], greater than 1000 nM; under setting [3], less than 3.16 nM; under setting [4], less than 3.16 nM; under setting [5], less than 3.16 nM. Further, the viability, T/C by setting is: (second compound 0.03 µM, first compound 0.00316 µM) 92.8%; (second compound 0.03 µM, first compound 0.01 µM) 84.1%; under setting [6], 85.6%; under setting [7], 91.7%; under setting [8], 89.2%; under setting [9], 73.3%. Also, the viability, T/C is 86.3% (second compound 0.0949 µM, first compound 0.00316 µM); 70.2% (second compound 0.0949 µM, first compound 0.01 µM); 63.5% under setting [10]; 65.8% under setting [11]; 65.4% under setting [12]; 60.4% under setting [13]. The viability, T/C (second compound 0.3 µM, first compound 0.00316 µM) was 41.7%; the viability, T/C (second compound 0.3 µM, first compound 0.01 µM) is 36.5%; the viability, T/C under setting [14] is 35.1%; the viability, T/C under setting [15] is 24.6%; the viability, T/C under setting [16] was 35.6%; the viability, T/C under setting [17] was 30.3%. Besides, the viability, T/C was 13.8% (second compound 0.949 µM, first compound 0.00316 µM); 9.3% (second compound 0.949 µM, first compound 0.01 µM); 5.92% under setting [18]; 4.78% under setting [19]; 6.7% under setting [20]; 8.64% under setting [21]. Further, the viability, T/C (second compound 3 µM, first compound 0.00316 µM) was 3.86%; the viability, T/C (second compound 3 µM, first compound 0.01 µM) is 2.08%; the viability, T/C under setting [22] is 2.54%; the viability, T/C under setting [23] is 1.28%; the viability, T/C under setting [24] was 2.31%; the viability, T/C under setting [25] was 1.12%.
